Laboratory results taken from ChEMBL document CHEMBL4118125, “MK-8325: A silyl proline-containing NS5A inhibitor with pan-genotype activity for treatment of HCV” (Bioorg Med Chem Lett, 2018).
Active and inactive are the calls of the source. No cut-off for these calls is given here.

Key:
[1] = Oral bioavailability in Sprague-Dawley rat at 2 mg/kg by LC-MS/MS method; format: ADME, organism-based; conditions: in vivo
[2] = Effective half life in beagle dog at 1 mg/kg, iv by LC-MS/MS method; format: ADME, organism-based, Canis lupus familiaris; conditions: in vivo, read-out: t1/2eff (converted)
[3] = Drug level in Sprague-Dawley rat at 2 mg/kg, po after 24 hrs by LC-MS/MS method; format: ADME, organism-based; conditions: in vivo, read-out: Drug uptake
[4] = organism: Homo sapiens; test: Inhibition of IKs channel (unknown origin) at 30 uM
[5] = target: Cytochrome P450 2C9 (Homo sapiens, UniProt P11712); test: Inhibition of CYP2C9 (unknown origin); format: ADME
Chain of Cytochrome P450 2C9 (P11712 whole entry): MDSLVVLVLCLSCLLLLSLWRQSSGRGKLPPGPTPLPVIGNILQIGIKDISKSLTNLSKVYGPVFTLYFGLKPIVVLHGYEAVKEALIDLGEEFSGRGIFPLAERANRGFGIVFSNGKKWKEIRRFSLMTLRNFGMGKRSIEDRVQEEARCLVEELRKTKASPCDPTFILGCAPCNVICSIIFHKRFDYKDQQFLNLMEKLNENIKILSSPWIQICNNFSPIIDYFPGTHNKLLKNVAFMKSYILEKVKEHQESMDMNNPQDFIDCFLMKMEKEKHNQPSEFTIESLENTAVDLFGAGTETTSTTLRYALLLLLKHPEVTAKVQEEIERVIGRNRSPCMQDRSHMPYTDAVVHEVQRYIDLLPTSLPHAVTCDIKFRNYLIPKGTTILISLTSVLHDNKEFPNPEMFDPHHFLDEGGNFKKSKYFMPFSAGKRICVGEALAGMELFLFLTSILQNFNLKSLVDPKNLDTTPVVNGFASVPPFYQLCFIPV

[6] = Clearance in beagle dog at 1 mg/kg, iv by LC-MS/MS method; format: ADME, organism-based, Canis lupus familiaris; conditions: in vivo
[7] = Cytotoxicity in human HuH7 replicon cells by MTS assay; format: cell-based, Huh-7
[8] = Oral bioavailability in beagle dog at 1 mg/kg by LC-MS/MS method; format: ADME, organism-based, Canis lupus familiaris; conditions: in vivo
[9] = target: T1, Nuclear receptor subfamily 1 group I member 2 (Homo sapiens, UniProt O75469); test: Activation of PXR (unknown origin); format: ADME
T1 sequence (O75469 whole entry): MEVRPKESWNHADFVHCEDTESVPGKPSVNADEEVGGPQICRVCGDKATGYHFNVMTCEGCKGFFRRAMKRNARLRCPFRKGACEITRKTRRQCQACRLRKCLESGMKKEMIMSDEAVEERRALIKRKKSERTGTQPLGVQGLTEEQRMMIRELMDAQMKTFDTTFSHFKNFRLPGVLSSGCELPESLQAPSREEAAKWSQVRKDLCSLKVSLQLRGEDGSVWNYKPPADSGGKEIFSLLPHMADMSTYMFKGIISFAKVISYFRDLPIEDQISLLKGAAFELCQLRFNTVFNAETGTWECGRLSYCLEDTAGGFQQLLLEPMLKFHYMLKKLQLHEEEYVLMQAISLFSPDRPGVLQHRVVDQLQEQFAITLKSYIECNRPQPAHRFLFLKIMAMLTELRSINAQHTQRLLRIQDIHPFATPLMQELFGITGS

[10] = Drug level in beagle dog at 1 mg/kg, po after 24 hrs by LC-MS/MS method; format: ADME, organism-based, Canis lupus familiaris; conditions: in vivo, read-out: Drug uptake
[11] = Effective half life in cynomolgus monkey at 1 mg/kg, iv by LC-MS/MS method; format: ADME, organism-based, Macaca fascicularis; conditions: in vivo, read-out: t1/2eff (converted)
[12] = Effective half life in Sprague-Dawley rat at 2.5 mg/kg, iv by LC-MS/MS method; format: ADME, organism-based; conditions: in vivo, read-out: t1/2eff (converted)
[13] = Clearance in cynomolgus monkey at 1 mg/kg, iv by LC-MS/MS method; format: ADME, organism-based, Macaca fascicularis; conditions: in vivo
[14] = test system: Rattus norvegicus; test: AUC in Sprague-Dawley rat at 2 mg/kg, po by LC-MS/MS method; format: ADME, organism-based; conditions: in vivo
[15] = target: Cytochrome P450 2D6 (Homo sapiens, UniProt P10635); test: Inhibition of CYP2D6 (unknown origin); format: ADME
Chain of Cytochrome P450 2D6 (P10635 whole entry): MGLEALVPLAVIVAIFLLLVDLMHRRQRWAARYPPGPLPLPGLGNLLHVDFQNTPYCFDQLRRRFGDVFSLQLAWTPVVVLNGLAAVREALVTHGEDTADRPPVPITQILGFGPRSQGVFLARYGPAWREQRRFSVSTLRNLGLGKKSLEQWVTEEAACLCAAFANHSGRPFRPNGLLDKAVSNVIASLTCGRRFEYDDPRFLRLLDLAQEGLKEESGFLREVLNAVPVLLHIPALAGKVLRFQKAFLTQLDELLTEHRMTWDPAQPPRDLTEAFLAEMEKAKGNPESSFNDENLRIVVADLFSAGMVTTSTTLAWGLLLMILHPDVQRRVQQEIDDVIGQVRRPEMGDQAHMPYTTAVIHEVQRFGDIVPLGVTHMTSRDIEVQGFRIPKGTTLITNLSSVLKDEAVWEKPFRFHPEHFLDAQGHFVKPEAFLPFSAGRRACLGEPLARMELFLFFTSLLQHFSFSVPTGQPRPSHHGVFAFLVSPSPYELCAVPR

[16] = Clearance in Sprague-Dawley rat at 2.5 mg/kg, iv by LC-MS/MS method; format: ADME, organism-based; conditions: in vivo
[17] = target: Cytochrome P450 3A4 (Homo sapiens, UniProt P08684); test: Inhibition of CYP3A4 (unknown origin); format: ADME
Chain of Cytochrome P450 3A4 (P08684 whole entry): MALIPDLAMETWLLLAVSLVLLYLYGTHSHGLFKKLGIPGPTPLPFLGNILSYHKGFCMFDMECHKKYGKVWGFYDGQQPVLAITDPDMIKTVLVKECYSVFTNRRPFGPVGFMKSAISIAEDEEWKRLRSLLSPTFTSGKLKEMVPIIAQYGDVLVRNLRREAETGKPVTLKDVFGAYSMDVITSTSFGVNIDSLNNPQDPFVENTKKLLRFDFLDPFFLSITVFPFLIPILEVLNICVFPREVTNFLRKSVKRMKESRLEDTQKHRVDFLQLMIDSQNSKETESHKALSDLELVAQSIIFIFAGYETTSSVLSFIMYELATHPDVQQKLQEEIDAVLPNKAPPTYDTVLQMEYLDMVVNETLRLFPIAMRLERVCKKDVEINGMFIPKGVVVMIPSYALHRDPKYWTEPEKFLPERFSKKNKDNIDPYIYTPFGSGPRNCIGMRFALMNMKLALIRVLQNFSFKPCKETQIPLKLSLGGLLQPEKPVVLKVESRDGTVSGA

[18] = test system: Canis familiaris; test: AUC in beagle dog at 1 mg/kg, po by LC-MS/MS method; format: ADME, organism-based, Canis lupus familiaris; conditions: in vivo
[19] = organism: Homo sapiens; test: Inhibition of sodium channel (unknown origin) at 30 uM

| bioavailability [1] | half-life [2] | concentration at 24 h [3] | inhibition [4] | INH [5] | clearance [6] | bioavailability [8] | Activity [9] | concentration at 24 h [10] | half-life [11] | half-life [12] | clearance [13] | AUC [14] | INH [15] | clearance [16] | INH [17] | AUC [18] | Structure (SMILES) | CC50 [7] | inhibition [19] |
| --- | --- | --- | --- | --- | --- | --- | --- | --- | --- | --- | --- | --- | --- | --- | --- | --- | --- | --- | --- |
| 38% | 4.7 h | 4 nM | inactive | > 20 µM | 6.4 mL/min/kg | 26% | 3 µM | 4 nM | 3 h | 2 h | 9.1 mL/min/kg | 1.7 uM.hr/ml | > 20 µM | 9.3 mL/min/kg | > 20 µM | 1.1 uM.hr/ml | COC(=O)N[C@H](C(=O)N1CCC[C@H]1c1ncc(-c2ccc(-c3cc4cc(-c5cnc([C@@H]6CCCN6C(=O)[C@@H](NC(=O)OC)C(C)C)[nH]5)ccc4o3)cc2)[nH]1)C(C)C | 7 µM |  |
|  |  |  |  |  |  |  |  |  |  |  |  |  |  |  |  |  | COC(=O)N[C@H](C(=O)N1CC(F)(F)C[C@H]1c1ncc(-c2ccc(-c3ccc4c(ccc5nc([C@@H]6C[Si](C)(C)CN6C(=O)[C@@H](NC(=O)OC)C(C)C)[nH]c54)c3)cc2)[nH]1)C(C)C |  | inactive |
